“And” between values parts separate entries of the source, which are not always exact repeats. Identical values can stand only once. Toxic doses and inconclusive results are not listed. The calls were made as follows: active = survival T/C of 150% or more; inactive = T/C below 125% in these data.
System: P388 leukemia ip, CD2F1 mice, survival T/C
Test: NCI In Vivo Anticancer Drug Screen. Data for tumor model P388 Leukemia (intraperitoneal) in CD2F1 (CDF1) mice
Conditions: endpoint: median survival time, higher = longer survival
How it was run: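 Mice carrying the transplanted tumor received test compound or vehicle. Survival was recorded in each group, and the value is the treated-group measurement divided by that of the vehicle-treated control group.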

[1] = dose: 50.0 mg/kg/injection, schedule: Q01DX005 (ip), vehicle: saline with Tween-80
[2] = dose: 100.0 mg/kg/injection, schedule: Q01DX005 (ip), vehicle: saline with Tween-80
[3] = dose: 50.0 mg/kg/injection, schedule: Q01DX009 (ip), vehicle: saline with Tween-80
[4] = dose: 100.0 mg/kg/injection, schedule: Q01DX009 (ip), vehicle: saline with Tween-80
[5] = dose: 200.0 mg/kg/injection, schedule: Q01DX009 (ip), vehicle: saline with Tween-80
[6] = dose: 50.0 mg/kg/injection, schedule: Q01DX005 (ip), vehicle: Klucel (hydroxypropylcellulose) (HPC)
[7] = dose: 100.0 mg/kg/injection, schedule: Q01DX005 (ip), vehicle: Klucel (hydroxypropylcellulose) (HPC)
[8] = dose: 100.0 mg/kg/injection, schedule: Q04DX002 (ip), vehicle: saline
[9] = dose: 60.0 mg/kg/injection, schedule: Q01DX005 (ip), vehicle: saline with Tween-80
[10] = dose: 120.0 mg/kg/injection, schedule: Q01DX005 (ip), vehicle: saline with Tween-80
[11] = dose: 240.0 mg/kg/injection, schedule: Q01DX005 (ip), vehicle: saline with Tween-80
[12] = dose: 200.0 mg/kg/injection, schedule: Q01DX005 (ip), vehicle: Klucel (hydroxypropylcellulose) (HPC)

Measured: T/C

COc1cc2ccc3c[n+](C)ccc3c2cc1OC
inactive: dose: 6.25 mg/kg/injection, schedule: Q01DX009 (ip), vehicle: water 101 % of control and 103 % of control | dose: 12.5 mg/kg/injection, schedule: Q01DX009 (ip), vehicle: other 107 % of control | dose: 12.5 mg/kg/injection, schedule: Q01DX009 (ip), vehicle: water 114 % of control | dose: 25.0 mg/kg/injection, schedule: Q01DX009 (ip), vehicle: other 119 % of control | dose: 25.0 mg/kg/injection, schedule: Q01DX009 (ip), vehicle: water 116 % of control and 122 % of control | dose: 100.0 mg/kg/injection, schedule: Q01DX009 (ip), vehicle: water 108 % of control

CCOC(=O)C1CCc2ccccc2N1 (configuration not stated)
inactive: [1] 99 % of control | [2] 103 % of control | dose: 200.0 mg/kg/injection, schedule: Q01DX005 (ip), vehicle: saline with Tween-80 104 % of control

O=C(Nc1ccccc1)Oc1ccc(/C=N/S(=O)(=O)c2cccc([N+](=O)[O-])c2)cc1
inactive: [3] 96 % of control | [4] 98 % of control | [5] 118 % of control

O=C1/C(=C/c2cccc([N+](=O)[O-])c2)SC(=S)N1C1CC1
inactive: [6] 89 % of control | [7] 89 % of control

CCN(CC)S(=O)(=O)C(=[N+]=[N-])P(=O)(OC)OC
inactive: [8] 100 % of control | dose: 200.0 mg/kg/injection, schedule: Q04DX002 (ip), vehicle: saline 112 % of control | dose: 400.0 mg/kg/injection, schedule: Q04DX002 (ip), vehicle: saline 100 % of control

O=[N+]([O-])c1ccc(-c2cn(-c3ccc(Cl)cc3)cn2)cc1
inactive: [9] 96 % of control | [10] 88 % of control | [11] 88 % of control

CC(=O)c1ccc(NC(O)C(Cl)(Cl)Cl)cc1 (configuration not stated)
inactive: dose: 25.0 mg/kg/injection, schedule: Q01DX009 (ip), vehicle: saline with Tween-80 99 % of control | [3] 96 % of control | [4] 103 % of control | [5] 107 % of control

CC(/C=N\NC(=S)SCc1ccccc1)=N/NC(N)=S
inactive: dose: 100.0 mg/kg/injection, schedule: Q01DX001 (ip), vehicle: saline 106 % of control | dose: 200.0 mg/kg/injection, schedule: Q01DX001 (ip), vehicle: saline 106 % of control | dose: 400.0 mg/kg/injection, schedule: Q01DX001 (ip), vehicle: saline 103 % of control

CCCCCCCC[N+]1(CC)CCCC1
inactive: dose: 3.12 mg/kg/injection, schedule: Q01DX009 (ip), vehicle: saline 95 % of control | dose: 6.25 mg/kg/injection, schedule: Q01DX009 (ip), vehicle: saline 95 % of control | dose: 12.5 mg/kg/injection, schedule: Q01DX009 (ip), vehicle: saline 96 % of control

O=C(O)CNC(=O)Cc1cccc2ccccc12
inactive: [6] 102 % of control | [7] 98 % of control | [12] 95 % of control

Cc1ccc(N=Nc2c(O)n(-c3ccccc3C)c(=S)n(-c3ccc(Br)cc3)c2=O)cc1
inactive: [3] 100 % of control | [4] 101 % of control

CC(N)C12CC3CC(CC(C3)C1)C2 (configuration not stated)
inactive: dose: 25.0 mg/kg/injection, schedule: Q04DX002 (ip), vehicle: saline 108 % of control | dose: 50.0 mg/kg/injection, schedule: Q04DX002 (ip), vehicle: saline 100 % of control | [8] 100 % of control | dose: 100.0 mg/kg/injection, schedule: Q04DX002 (ip), vehicle: suspension in saline 101 % of control

c1ccc2c(c1)CN1Cc3ccccc3C2C1
inactive: [3] 99 % of control | [4] 93 % of control | [5] 91 % of control

O=c1c2ccccc2cc2n1CCN2
inactive: [6] 96 % of control | [7] 112 % of control | [12] 107 % of control

COc1ccc2c(N)c3cccc[n+]3cc2c1OC
inactive: dose: 6.25 mg/kg/injection, schedule: Q04DX003 (ip), vehicle: water 106 % of control and 108 % of control | dose: 12.5 mg/kg/injection, schedule: Q04DX003 (ip), vehicle: water 116 % of control and 121 % of control | dose: 25.0 mg/kg/injection, schedule: Q04DX003 (ip), vehicle: water 118 % of control and 122 % of control | dose: 50.0 mg/kg/injection, schedule: Q04DX003 (ip), vehicle: water 103 % of control

Cc1cc(OCCS(=O)(=O)C(CCOS(C)(=O)=O)COS(C)(=O)=O)cc(C)c1Cl (configuration not stated)
inactive: dose: 50.0 mg/kg/injection, schedule: Q01DX009 (ip), vehicle: Klucel (hydroxypropylcellulose) (HPC) 105 % of control | dose: 100.0 mg/kg/injection, schedule: Q01DX009 (ip), vehicle: Klucel (hydroxypropylcellulose) (HPC) 102 % of control | dose: 200.0 mg/kg/injection, schedule: Q01DX009 (ip), vehicle: Klucel (hydroxypropylcellulose) (HPC) 101 % of control

O=C(CSC1CCc2ccccc21)N/N=C/c1ccco1 (configuration not stated)
inactive: [6] 98 % of control | [7] 100 % of control | [12] 88 % of control

NC(N)=N/N=C/COc1cccnc1
inactive: [9] 97 % of control | [10] 100 % of control | [11] 97 % of control

CCN(CC)CCN1C(=O)c2cccc3cc(OC)cc(c23)C1=O
inactive: dose: 25.0 mg/kg/injection, schedule: Q01DX005 (ip), vehicle: saline 104 % of control | dose: 50.0 mg/kg/injection, schedule: Q01DX005 (ip), vehicle: saline 100 % of control | dose: 100.0 mg/kg/injection, schedule: Q01DX005 (ip), vehicle: saline 107 % of control

Cc1cc2nc3c(C(O)C(O)C(O)CO)nn(-c4ccc(F)cc4)c3nc2cc1C (configuration not stated)
inactive: [6] 88 % of control | [7] 86 % of control | [12] 93 % of control

CCOC(=O)C1=C(SC)SC(C(=O)OCC)C2C=C(C)C=CN12 (configuration not stated)
inactive: dose: 15.0 mg/kg/injection, schedule: Q01DX005 (ip), vehicle: Klucel + Tween-80 97 % of control | dose: 30.0 mg/kg/injection, schedule: Q01DX005 (ip), vehicle: Klucel + Tween-80 108 % of control | dose: 60.0 mg/kg/injection, schedule: Q01DX005 (ip), vehicle: Klucel + Tween-80 104 % of control and 96 % of control

Nc1nc2c(c(=O)[nH]1)NC(CN(C(=O)CCCl)c1ccc(C(=O)NC(CCC(=O)O)C(=O)O)cc1)CN2 (configuration not stated)
inactive: dose: 50.0 mg/kg/injection, schedule: Q01DX001 (ip), vehicle: alkali diluted with saline 101 % of control | dose: 100.0 mg/kg/injection, schedule: Q01DX001 (ip), vehicle: alkali diluted with saline 104 % of control | dose: 200.0 mg/kg/injection, schedule: Q01DX001 (ip), vehicle: alkali diluted with saline 101 % of control

CCC1CN2CCC1CC2C(O)c1ccnc2ccc(OC)cc12 (configuration not stated)
inactive: [1] 100 % of control | [2] 98 % of control

C[N+]1(C2CCCCC2c2cccc(O)c2)CCCC1 (configuration not stated)
inactive: dose: 0.39 mg/kg/injection, schedule: Q01DX009 (ip), vehicle: saline 98 % of control | dose: 0.79 mg/kg/injection, schedule: Q01DX009 (ip), vehicle: saline 104 % of control | dose: 1.56 mg/kg/injection, schedule: Q01DX009 (ip), vehicle: saline 98 % of control

COC(=S)c1cccc(C(=S)OC)c1
inactive: [3] 108 % of control | [4] 115 % of control | [5] 108 % of control

C(=C\CN(Cc1ccccc1)Cc1ccccc1)/CN(Cc1ccccc1)Cc1ccccc1
inactive: dose: 50.0 mg/kg/injection, schedule: Q04DX003 (ip), vehicle: Klucel (hydroxypropylcellulose) (HPC) 95 % of control | dose: 100.0 mg/kg/injection, schedule: Q04DX003 (ip), vehicle: Klucel (hydroxypropylcellulose) (HPC) 90 % of control | dose: 200.0 mg/kg/injection, schedule: Q04DX003 (ip), vehicle: Klucel (hydroxypropylcellulose) (HPC) 90 % of control

CC1(C)CCC(C)(C)NC(=S)N1
inactive: dose: 3.13 mg/kg/injection, schedule: Q01DX009 (ip), vehicle: saline with Tween-80 96 % of control | dose: 6.25 mg/kg/injection, schedule: Q01DX009 (ip), vehicle: saline with Tween-80 105 % of control | dose: 12.5 mg/kg/injection, schedule: Q01DX009 (ip), vehicle: saline with Tween-80 96 % of control

CC(=O)Oc1ccc(C2c3c(n(C(C)=O)c4ccccc34)C(=O)NN2C(C)=O)cc1 (configuration not stated)
inactive: [6] 100 % of control | [7] 109 % of control | [12] 112 % of control

CCc1cnc(=S)n(-c2ccccc2)c1
inactive: dose: 100.0 mg/kg/injection, schedule: Q01DX001 (ip), vehicle: saline with Tween-80 99 % of control | dose: 200.0 mg/kg/injection, schedule: Q01DX001 (ip), vehicle: saline with Tween-80 95 % of control

O=C(Nc1n[nH]c(NC(=O)C(F)(F)F)n1)C(F)(F)F
inactive: [6] 103 % of control | [7] 103 % of control | [12] 100 % of control

Reference: PubChem BioAssay AID330 (DTP/NCI, 2004)
